How the values were obtained:
Type in all cases: physicochemical
[1] = Levothyroxine release from capsule with 3 nm nanochannel membrane into sink solution; conditions: powder, 2 separate experiments (019, 040)
Description: The implantable capsule comprising one or more nanochannel membranes were fabricated according to US 2010/0152699 and PCT/US2009/064376. The nanochannel membranes present nanochannels ranging in sizes between 3 and 50 nm. The nanochannel membranes (FIG. 2A) were produced in 29 configurations presenting different constant rates of delivery. Custom diffusion devices (FIG. 2B) were utilized for measuring the amount of drug released from nanochannel membrane devices using UV-spectroscopy, as described in Grattoni et al., Lab on a Chip 10:3074-3083 (2010) and Grattoni et al., Anal. Chem. 83:3096-3103 (2011). A linear standard curve relating UV absorbance and concentration of diffused substance was obtained at a wavelength of 250 nm and used for the release test of testosterone. A linear standard curve relating UV absorbance and concentration of diffused substance was obtained at a wavelength of 240 nm and used for the release test of levothyroxine. […]
PEEK capsules were loaded with 852 and 875 μL of Millipore water and 17.1 mg of powder. […] For the release measurement, a UV-Vis absorbance versus concentration standard curve was prepared. The absorbance was measured at 240 nm. The sampling method consisted of removing 1.5 mL of the sink solution, measuring the absorbance, and returning the sample to the bottle. […]

[2] = Second long-term testosterone release experiment, capsule with 40 nm membrane into sink solution; conditions: pellet formulation (Testopel), 40 nm nanochannel membrane
Description: The second long-term testosterone release experiment was run with the same setup and measurement method. In this case, 40 nm membranes with 8 μm wide and 1 μm long nanochannels were used for both testosterone formulations. The nanochannel membrane was fabricated by NanoMedical Systems, Inc., Austin Tex. by using the fabrication methods as described in PCT/US2009/064376. In general, the nanochannel membrane was fabricated with microfabrication techniques by employing a sacrificial layer technique, to obtain precise nanochannels parallel to the membrane surface and connected to the membrane inlet and outlet by means of sets of microchannels.
Testosterone powder and pellet (26 and 24.7 mg, respectively) were weighted into PEEK capsules. Both capsules were filled with 900 μL and dropped into 90 mL of Millipore water. The sampling measurement was performed every other day with the same method described above.

[3] = First long-term testosterone release experiment, capsule with 3 nm membrane into sink solution; conditions: pellet formulation (Testopel), 3 nm nanochannel membrane, 37° C.
Description: In the first long-term testosterone release experiment, two testosterone formulations, powder and pellet (Testopel), were used. The release experiment was performed from a capsule into a bottle containing the recipient sink solution. A 3 nm membrane was used for each testosterone formulation and assembled within the capsule. Each nanochannel presented a width of 5 μm and a length of 3 μm. The nanochannel membrane was fabricated by NanoMedical Systems, Inc., Austin Tex. by using the fabrication methods as described in PCT/US2009/064376. In general, the nanochannel membrane was fabricated with microfabrication techniques by employing a sacrificial layer technique, to obtain precise nanochannels parallel to the membrane surface and connected to the membrane inlet and outlet by means of sets of microchannels.
The total number of nanochannel per membrane is equal to 118496. Testosterone powder (21.2 mg) was weighted into the titanium capsule, which was filled with 791 μL of Millipore water. […] For the release measurement of both testosterone conformations, a UV-Vis absorbance versus concentration standard curve was prepared. The testosterone solutions were sampled every other day and the UV absorbance was measured at a wavelength of 250 nm. The sampling method consisted of removing 1.5 mL of the sink solution, measuring the absorbance, and returning the sample to the bottle. […]

[4] = Preliminary release of testosterone from solid pellets through 3 nm nanochannel membrane (UV absorbance)
Description: In a preliminary experiment, the nanochannel implant was loaded with degradable testosterone pellets immersed in DI water. The amount of DI water inserted in the capsule was approximately 700 μL.

SMILES	duration of continuous and constant release of levothyroxine [1] [days]	approximate daily release rate of levothyroxine ([1]; 37° C.) [µg/day]	duration of constant (linear) delivery of testosterone [2]	duration of constant (linear) delivery of testosterone [3]	duration of constant release of testosterone ([4]; solid pellets) [days]	release rate of testosterone ([4]; solid pellets (24 mg testosterone) in DI water) [µg/day]
N[C@@H](Cc1cc(I)c(Oc2cc(I)c(O)c(I)c2)c(I)c1)C(=O)O.O.O.O.O.O.[Na] [levothyroxine, L-thyroxine sodium pentahydrate]	17	~500				
C[C@]12CC[C@H]3[C@@H](CCC4=CC(=O)CC[C@@]43C)[C@@H]1CC[C@@H]2O [testosterone]			over 160 days	over 180 days	13	5
